# Measurements reported in patent US20260286396A1, “AXL KNOCK OUT CAR T CELLS AND METHODS FOR USE THEREOF” (priority 2023, published 2026).
# Test system: CART19 cells
# Experiment: RNA sequencing of CART19 cells with Ingenuity pathway analysis (pathways, upstream regulators)
# Type: cell-based, human
# Method: CART19 cells were isolated using CD4 and CD8 microbeads to […] the JeKo-1 target cells; this isolation step was performed twice to eliminate the possible contamination of JeKo-1 cells. RNA was isolated from the CART19 cells using QIAGEN RNEASY® Plus Mini Kit. RNA was further treated with DNase I (QIAGEN) and purified using RNA Clean & Concentrator (Zymo Research). […] The fastq files were viewed in FastQC to check for quality (Cox et al., Mol Ther., 29 (4): 1529-1540, 2020). After verifying the lack of adapter sequences with FastQC, Cutadapt (Martin, EMBnet, 17:10-12, 2011) was used to filter for reads greater than 32 base pairs. Output files were re-checked for quality using FastQC. The latest human reference genome (GRCh38.p13) was downloaded from NCBI. Genome index files were generated using STAR (Cox et al. 2020, supra, and Dobin et al., Bioinformatics, 29:15-21, 2012). Paired end reads from fastq files were mapped to the genome for each condition. HTSeq was used to generate expression counts for each gene (Cox et al. 2020, supra; and Putri et al., Bioinformatics, 38:2943-2945, 2022). […] The disruption efficiency of the CRISPR/Cas9 GM-CSF knockout was determined using targeted sequencing through PCR and TIDE analysis (software available at tide.nki.nl) as described elsewhere (Sakemura et al. 2021, supra).
# RNA sequencing of CART19 cells was then performed. […] Data were analyzed with the use of QIAGEN Ingenuity Pathway Analysis (IPA) (digitalinsights.qiagen.com/IPA; Krämer et al., Bioinformatics 30 (4): 523-530, 2014).
# [1] = Upstream Regulator KLF11, 30 nM, 24 hours vs vehicle
# [2] = Upstream Regulator LAMA4, 30 nM, 24 hours vs vehicle
# [3] = Upstream Regulator LARP1, flag bias, 30 nM, 24 hours vs vehicle
# [4] = Upstream Regulator MFSD2A, 30 nM, 24 hours vs vehicle
# [5] = Upstream Regulator MSC, 30 nM, 24 hours vs vehicle
# [6] = Upstream Regulator MYC, 30 nM, 24 hours vs vehicle
# [7] = Upstream Regulator MYCN, 30 nM, 24 hours vs vehicle
# [8] = Upstream Regulator NELFB, 30 nM, 24 hours vs vehicle
# [9] = Upstream Regulator NFAT5, 30 nM, 24 hours vs vehicle
# [10] = Upstream Regulator NR3C1, 30 nM, 24 hours vs vehicle
# [11] = Upstream Regulator NT5E, 30 nM, 24 hours vs vehicle
# [12] = Upstream Regulator NUPR1, 30 nM, 24 hours vs vehicle
# [13] = Upstream Regulator PAX5, 30 nM, 24 hours vs vehicle
# [14] = Upstream Regulator PDGFB, 30 nM, 24 hours vs vehicle
# [15] = Upstream Regulator REL, 30 nM, 24 hours vs vehicle
# [16] = Upstream Regulator RXRB, 30 nM, 24 hours vs vehicle
# [17] = Upstream Regulator SATB1, 30 nM, 24 hours vs vehicle
# [18] = Upstream Regulator SHC1, 30 nM, 24 hours vs vehicle
# [19] = Upstream Regulator SMAD3, 30 nM, 24 hours vs vehicle
# [20] = Upstream Regulator STAT3, 30 nM, 24 hours vs vehicle
# [21] = Upstream Regulator STAT6, 30 nM, 24 hours vs vehicle
# [22] = Upstream Regulator STIM1, 30 nM, 24 hours vs vehicle
# [23] = Upstream Regulator SYK, 30 nM, 24 hours vs vehicle
# [24] = Upstream Regulator TAFAZZIN, 30 nM, 24 hours vs vehicle
# [25] = Upstream Regulator TCF3, 30 nM, 24 hours vs vehicle
# [26] = Upstream Regulator TCF12, 30 nM, 24 hours vs vehicle
# [27] = Upstream Regulator TCR, 30 nM, 24 hours vs vehicle
# [28] = Upstream Regulator TFRC, 30 nM, 24 hours vs vehicle
# [29] = Upstream Regulator TGF BETA, 30 nM, 24 hours vs vehicle
# [30] = Upstream Regulator TGFB2, 30 nM, 24 hours vs vehicle
# [31] = Upstream Regulator TIGIT, 30 nM, 24 hours vs vehicle
# [32] = Upstream Regulator TLR9, 30 nM, 24 hours vs vehicle
# [33] = Upstream Regulator TNF, 30 nM, 24 hours vs vehicle
# [34] = Upstream Regulator USP38, 30 nM, 24 hours vs vehicle
# [35] = Upstream Regulator ZBTB16, 30 nM, 24 hours vs vehicle
# [36] = upstream regulator ACE, CART19 stimulated with JeKo-1, 30 nM TP-0903 vs vehicle, 24 hours
# [37] = upstream regulator AMBRA1, CART19 stimulated with JeKo-1, 30 nM TP-0903 vs vehicle, 24 hours
# [38] = upstream regulator CCR2, CART19 stimulated with JeKo-1, 30 nM TP-0903 vs vehicle, 24 hours
# [39] = upstream regulator CIP2A, CART19 stimulated with JeKo-1, 30 nM TP-0903 vs vehicle, 24 hours
# [40] = upstream regulator ERBB3, CART19 stimulated with JeKo-1, 30 nM TP-0903 vs vehicle, 24 hours
# [41] = upstream regulator HGF, CART19 stimulated with JeKo-1, 30 nM TP-0903 vs vehicle, 24 hours
# [42] = upstream regulator IKBKG, CART19 stimulated with JeKo-1, 30 nM TP-0903 vs vehicle, 24 hours
# [43] = upstream regulator IL7, CART19 stimulated with JeKo-1, 30 nM TP-0903 vs vehicle, 24 hours
# [44] = upstream regulator PPARD, CART19 stimulated with JeKo-1, 30 nM TP-0903 vs vehicle, 24 hours
# [45] = upstream regulator SMAD4, CART19 stimulated with JeKo-1, 30 nM TP-0903 vs vehicle, 24 hours
compound,measurement,setting,value
"CN1CCN(Cc2ccc(Nc3ncc(Cl)c(Nc4ccccc4S(=O)(=O)N(C)C)n3)cc2)CC1 [TP-0903, Dubermatinib]",Expr Log Ratio,[1],−0.037
same,Predicted Activation State,[1],inhibited
same,Activation Z-Score,[2],2.985
same,Expr Log Ratio,[2],−1.478
same,Predicted Activation State,[2],activated
same,Expr Log Ratio,"Upstream Regulator LARP1, 30 nM, 24 hours vs vehicle",−0.22
same,Activation Z-Score,[3],3.461
same,Predicted Activation State,[3],activated
same,Expr Log Ratio,"Upstream Regulator MED12, 30 nM, 24 hours vs vehicle",0.075
same,Activation Z-Score,"Upstream Regulator MEK, 30 nM, 24 hours vs vehicle",−1.682
same,Activation Z-Score,[4],2.219
same,Expr Log Ratio,[4],−0.204
same,Predicted Activation State,[4],activated
same,Activation Z-Score,"Upstream Regulator MIR-34A-5P (AND OTHER MIRNAS W/SEED GGCAGUG), flag bias, 30 nM, 24 hours vs vehicle",0.22
same,Activation Z-Score,"Upstream Regulator MIR-155-5P (MIRNAS W/SEED UAAUGCU), flag bias, 30 nM, 24 hours vs vehicle",1.95
same,Activation Z-Score,"Upstream Regulator MIR-155, 30 nM, 24 hours vs vehicle",0.713
same,Activation Z-Score,[5],0.707
same,Expr Log Ratio,[5],0.103
same,Activation Z-Score,[6],−1.663
same,Expr Log Ratio,[6],−0.584
same,Activation Z-Score,[7],−2.592
same,Expr Log Ratio,[7],−0.217
same,Predicted Activation State,[7],inhibited
same,Activation Z-Score,[8],−1
same,Expr Log Ratio,[8],0.032
same,Activation Z-Score,[9],−0.466
same,Expr Log Ratio,[9],−0.006
same,Activation Z-Score,[10],0.182
same,Expr Log Ratio,[10],0.097
same,Activation Z-Score,[11],0.447
same,Expr Log Ratio,[11],0.513
same,Activation Z-Score,[12],0.396
same,Expr Log Ratio,[12],1.017
same,Activation Z-Score,[13],−1.01
same,Expr Log Ratio,[13],−0.607
same,Activation Z-Score,"Upstream Regulator PDGF BB, 30 nM, 24 hours vs vehicle",−0.275
same,Activation Z-Score,[14],−1.513
same,Expr Log Ratio,[14],0.018
same,Activation Z-Score,"Upstream Regulator PKA, 30 nM, 24 hours vs vehicle",−1.077
same,Activation Z-Score,"Upstream Regulator PKC(S), 30 nM, 24 hours vs vehicle",1.03
same,Expr Log Ratio,"Upstream Regulator POU2F2, 30 nM, 24 hours vs vehicle",−0.143
same,Activation Z-Score,"Upstream Regulator POU2F2, flag bias, 30 nM, 24 hours vs vehicle",−1
same,Activation Z-Score,[15],−0.988
same,Expr Log Ratio,[15],0.266
same,Activation Z-Score,[16],1.155
same,Expr Log Ratio,[16],−0.076
same,Activation Z-Score,[17],−1.359
same,Expr Log Ratio,[17],−0.104
same,Activation Z-Score,[18],0.963
same,Expr Log Ratio,[18],0.076
same,Activation Z-Score,[19],−1.454
same,Expr Log Ratio,[19],0.337
same,Activation Z-Score,[20],−1.117
same,Expr Log Ratio,[20],0.116
same,Activation Z-Score,[21],−2.16
same,Expr Log Ratio,[21],−0.088
same,Predicted Activation State,[21],inhibited
same,Activation Z-Score,[22],−3
same,Expr Log Ratio,[22],0.123
same,Predicted Activation State,[22],inhibited
same,Activation Z-Score,[23],−1.203
same,Expr Log Ratio,[23],−0.298
same,Activation Z-Score,[24],0
same,Expr Log Ratio,[24],−0.111
same,Activation Z-Score,[25],−0.213
same,Expr Log Ratio,[25],−0.061
same,Activation Z-Score,[26],−0.207
same,Expr Log Ratio,[26],0.077
same,Activation Z-Score,[27],−2.683
same,Predicted Activation State,[27],inhibited
same,Activation Z-Score,[28],2.335
same,Expr Log Ratio,[28],−0.051
same,Predicted Activation State,[28],activated
same,Activation Z-Score,[29],−2.031
same,Predicted Activation State,[29],inhibited
same,Activation Z-Score,[30],−1.591
same,Expr Log Ratio,[30],−1.361
same,Activation Z-Score,[31],−1.982
same,Expr Log Ratio,[31],0.2
same,Activation Z-Score,[32],−0.796
same,Expr Log Ratio,[32],−0.186
same,Activation Z-Score,[33],−2.543
same,Predicted Activation State,[33],inhibited
same,Expr Log Ratio,"Upstream Regulator TP53, 30 nM, 24 hours vs vehicle",0.089
same,Activation Z-Score,[34],−1.213
same,Expr Log Ratio,[34],−0.109
same,Activation Z-Score,[35],−0.683
same,Expr Log Ratio,[35],−0.061
same,Activation Z-Score,[36],1
same,Expr Log Ratio,[36],−1.023
same,Activation Z-Score,[37],1.808
same,Expr Log Ratio,[37],−0.003
same,Activation Z-Score,[38],0.314
same,Expr Log Ratio,[38],−1.545
same,Activation Z-Score,[39],0
same,Expr Log Ratio,[39],0.131
same,Activation Z-Score,[40],−1
same,Expr Log Ratio,[40],−1.599
same,Expr Log Ratio,"upstream regulator GPD1, CART19 stimulated with JeKo-1, 30 nM TP-0903 vs vehicle, 24 hours",0.348
same,Activation Z-Score,[41],−0.973
same,Expr Log Ratio,[41],−0.131
same,Activation Z-Score,[42],−0.788
same,Expr Log Ratio,[42],0.136
same,Activation Z-Score,[43],−0.288
same,Expr Log Ratio,[43],0.684
same,Activation Z-Score,"upstream regulator LET-7A-5P (AND OTHER MIRNAS W/SEED GAGGUAG), flag bias, CART19 stimulated with JeKo-1, 30 nM TP-0903 vs vehicle, 24 hours",1.25
same,Activation Z-Score,"upstream regulator NFKB (COMPLEX), CART19 stimulated with JeKo-1, 30 nM TP-0903 vs vehicle, 24 hours",−1.386
same,Activation Z-Score,"upstream regulator PI3K (COMPLEX), CART19 stimulated with JeKo-1, 30 nM TP-0903 vs vehicle, 24 hours",−1.952
same,Activation Z-Score,[44],−0.089
same,Expr Log Ratio,[44],−0.036
same,Activation Z-Score,"upstream regulator SCGB1A1, CART19 stimulated with JeKo-1, 30 nM TP-0903 vs vehicle, 24 hours",1.993
same,Activation Z-Score,[45],−0.02
same,Expr Log Ratio,[45],−0.097
same,Activation Z-Score,"upstream regulator TFPI2, CART19 stimulated with JeKo-1, 30 nM TP-0903 vs vehicle, 24 hours",1.131
